{"source": "patent US4847245A", "about": "“N-demethylefrotomycin” (Pfizer Inc., priority 1988, dated 1989)", "key": {"Past. haem.": {"tested_on": "Past. haem.", "experiment": "MIC in brain heart infusion (BHI) broth, two-fold dilutions", "type": "cell-based", "source_text": "(§1) Generally twelve 2 fold dilutions of the test compound are employed, with initial concentration of the test drug being in the range of 50 to 200 mcg./ml. The susceptibility (MIC) of the test organism is accepted as the lowest concentration of compound capable of producing complete inhibition of growth as judged by the naked eye."}, "Trepo. hyodis.": {"tested_on": "Trepo. hyodis.", "experiment": "MIC in brain heart infusion (BHI) broth, two-fold dilutions", "type": "cell-based", "settings": "24 h", "source_text": "as §1"}, "Staph. aureus": {"tested_on": "Staph. aureus", "experiment": "MIC in brain heart infusion (BHI) broth, two-fold dilutions", "type": "cell-based", "settings": "Staphylococcus aureus", "source_text": "as §1"}, "Strep. zooedid.": {"tested_on": "Strep. zooedid.", "experiment": "MIC in brain heart infusion (BHI) broth, two-fold dilutions", "type": "cell-based", "settings": "24 h; Strep. zooedid. 001, Day 1", "source_text": "as §1"}, "Lact. sp.": {"tested_on": "Lact. sp.", "experiment": "MIC in brain heart infusion (BHI) broth, two-fold dilutions", "type": "cell-based", "settings": "24 h; Lact. sp. 001, Day 1", "source_text": "as §1"}, "Fusob. necro.": {"tested_on": "Fusob. necro.", "experiment": "MIC in brain heart infusion (BHI) broth, two-fold dilutions", "type": "cell-based", "settings": "24 h", "source_text": "as §1"}, "Lact. acidoph.": {"tested_on": "Lact. acidoph.", "experiment": "MIC in brain heart infusion (BHI) broth, two-fold dilutions", "type": "cell-based", "settings": "24 h; Lact. acidoph. 001, Day 1", "source_text": "as §1"}, "Morax. bovis": {"tested_on": "Morax. bovis", "experiment": "MIC in brain heart infusion (BHI) broth, two-fold dilutions", "type": "cell-based", "source_text": "as §1"}, "E. coli": {"tested_on": "E. coli", "experiment": "MIC in brain heart infusion (BHI) broth, two-fold dilutions", "type": "cell-based", "settings": "Escherichia coli", "source_text": "as §1"}, "Acto. pyog.": {"tested_on": "Acto. pyog.", "experiment": "MIC in brain heart infusion (BHI) broth, two-fold dilutions", "type": "cell-based", "settings": "24 h", "source_text": "as §1"}, "Hemoph. pleur.": {"tested_on": "Hemoph. pleur.", "experiment": "MIC in brain heart infusion (BHI) broth, two-fold dilutions", "type": "cell-based", "settings": "24 h", "source_text": "as §1"}, "Past. mult": {"tested_on": "Past. mult", "experiment": "MIC in brain heart infusion (BHI) broth, two-fold dilutions", "type": "cell-based", "source_text": "as §1"}, "Past. haem. 010": {"tested_on": "Past. haem. 010", "experiment": "mouse protection test", "type": "in vivo", "settings": "mice infected i.p. with multilethal amounts of Past. haem. 010", "experimental": "Additionally, compound (I) is tested in vivo by the well-known mouse protection test, or by a microbiological (bioassay) determination of serum levels in a variety of mammals (e.g., mouse, rat, dog). For example, at subcutaneous doses of either 100 mg./kg. or 25 mg./kg., there was survival of 5/5 mice infected i.p. with multilethal amounts of Past. haem. 010."}}, "note": "Where two headings read alike, the source gives them in different places."}
{"smiles": "CC=CC=CC1OC(O)(C(CC)C(=O)NCC=CC=C(C)C(OC)C(C)C2OC(C=CC=CC=C(C)C(=O)c3c(O)cc[nH]c3=O)C(O)C2O)C(O)C(OC2OC(C)C(OC3OC(C)C(OC)C(O)C3OC)C(OC)C2O)C1(C)C", "note": "(stereo not drawn) [N--Demethylefrotomycin, N-demethylefrotomycin]", "values": [{"measurement": "MIC", "setting": "Past. haem.; 24 h", "value": 12.5, "unit": "µg/mL"}, {"measurement": "MIC", "setting": "Past. haem.; 24 h, Past. haem. 010, Day 1, read-out: MIC", "value": 3.12, "unit": "µg/mL"}, {"measurement": "MIC", "setting": "Past. haem.; 24 h, Past. haem. 046, Day 1, read-out: MIC", "value": 25, "unit": "µg/mL"}, {"measurement": "MIC", "setting": "Past. haem.; 24 h, Past. haem. 061, Day 1, read-out: MIC", "value": 25, "unit": "µg/mL"}, {"measurement": "MIC", "setting": "Past. haem.; 48 h", "value": 12.5, "unit": "µg/mL"}, {"measurement": "MIC", "setting": "Past. haem.; 48 h, Past. haem. 061, Day 2, read-out: MIC", "value": 3.12, "unit": "µg/mL"}, {"measurement": "MIC", "setting": "Past. haem.; Past. haem. 046, Day 2", "value": 12.5, "unit": "µg/mL"}, {"measurement": "MIC", "setting": "Trepo. hyodis.; Trepo. hyodis. 001, Day 1", "value": 1.56, "unit": "µg/mL"}, {"measurement": "MIC", "setting": "Trepo. hyodis.; Trepo. hyodis. 002, Day 1", "value": 0.78, "unit": "µg/mL"}, {"measurement": "MIC", "setting": "Trepo. hyodis.; Trepo. hyodis. 007, Day 1", "value": 1.56, "unit": "µg/mL"}, {"measurement": "MIC", "setting": "Staph. aureus; 24 h, Staph. aureus 006, Day 1", "value": "> 100", "unit": "µg/mL"}, {"measurement": "MIC", "setting": "Staph. aureus; 48 h, Staph. aureus 006, Day 2", "value": "> 100", "unit": "µg/mL"}, {"measurement": "MIC", "setting": "Strep. zooedid.", "value": "> 100", "unit": "µg/mL"}, {"measurement": "MIC", "setting": "Lact. sp.", "value": "> 100", "unit": "µg/mL"}, {"measurement": "MIC", "setting": "Fusob. necro.; Fusob. necro. 004, Day 1", "value": 25, "unit": "µg/mL"}, {"measurement": "MIC", "setting": "Fusob. necro.; Fusob. necro. 006, Day 1", "value": 6.25, "unit": "µg/mL"}, {"measurement": "MIC", "setting": "Lact. acidoph.", "value": 12.5, "unit": "µg/mL"}, {"measurement": "MIC", "setting": "Morax. bovis; 24 h, Morax. bovis 001, Day 1", "value": 6.25, "unit": "µg/mL"}, {"measurement": "MIC", "setting": "Morax. bovis; 48 h, Morax. bovis 001, Day 2", "value": 3.12, "unit": "µg/mL"}, {"measurement": "MIC", "setting": "E. coli; 24 h, E. coli 124, Day 1", "value": "> 100", "unit": "µg/mL"}, {"measurement": "MIC", "setting": "E. coli; 48 h, E. coli 124, Day 2", "value": "> 100", "unit": "µg/mL"}, {"measurement": "MIC", "setting": "Acto. pyog.; Acto. pyog. 002, Day 1", "value": 12.5, "unit": "µg/mL"}, {"measurement": "MIC", "setting": "Acto. pyog.; Acto. pyog. 008, Day 1", "value": 12.5, "unit": "µg/mL"}, {"measurement": "MIC", "setting": "Acto. pyog.; Acto. pyog. 011, Day 1, read-out: MIC", "value": 100, "unit": "µg/mL"}, {"measurement": "MIC", "setting": "Hemoph. pleur.; Hemoph. pleur. 004, Day 1", "value": 12.5, "unit": "µg/mL"}, {"measurement": "MIC", "setting": "Hemoph. pleur.; Hemoph. pleur. 005, Day 1", "value": 12.5, "unit": "µg/mL"}, {"measurement": "MIC", "setting": "Hemoph. pleur.; Hemoph. pleur. 024, Day 1, read-out: MIC", "value": "> 100", "unit": "µg/mL"}, {"measurement": "MIC", "setting": "Past. mult; 24 h, Past. mult 006, Day 1, read-out: MIC", "value": 6.25, "unit": "µg/mL"}, {"measurement": "MIC", "setting": "Past. mult; 24 h, Past. mult 048, Day 1, read-out: MIC", "value": 3.12, "unit": "µg/mL"}, {"measurement": "MIC", "setting": "Past. mult; 48 h", "value": 12.5, "unit": "µg/mL"}, {"measurement": "MIC", "setting": "Past. mult; 48 h, Past. mult 048, Day 2, read-out: MIC", "value": 6.25, "unit": "µg/mL"}, {"measurement": "survival of mice", "setting": "Past. haem. 010; subcutaneous 25 mg./kg.", "value": "5/5"}, {"measurement": "survival of mice", "setting": "Past. haem. 010; subcutaneous 100 mg./kg.", "value": "5/5"}]}
